Results taken from patent publication US20240158370A1, “CK1 alpha AND DUAL CK1 alpha / GSPT1 DEGRADING COMPOUNDS” (Innovo Therapeutics, Inc., priority 2022, published 2024).

Assays:
[1] = molecular target: T1, CK1α (Homo sapiens, UniProt P48729+Q96SW2); experiment: HiBiT degradation assay, CK1α, Procedure A; format: cell-based; conditions: six hours
T1 construct: CSNK1A1-HiBit KI HEK293(LgBit) Cells; host or cells: HEK293(LgBit) knock-in cells
Procedure, shortened: (§1)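 Cells in DMEM + 10% FBS were treated with compound in a ten-point dose response from 10 μM to 0.005 μM (0.1% DMSO) for six hours at 37° C. Lysis with Nano-Glo HiBiT detection reagent followed, with luminescence read. DC50 and Ymin came from a 4-parameter fit.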

[2] = molecular target: GSPT1 (Homo sapiens, UniProt P15170+Q96SW2); experiment: HiBiT degradation assay, GSPT1, Procedure A; format: cell-based; set-up: HiBit-GSPT1 KI HEK293(LgBit) Cells; host or cells: HEK293(LgBit) knock-in cells; conditions: six hours
Chain of GSPT1 (P15170 whole entry): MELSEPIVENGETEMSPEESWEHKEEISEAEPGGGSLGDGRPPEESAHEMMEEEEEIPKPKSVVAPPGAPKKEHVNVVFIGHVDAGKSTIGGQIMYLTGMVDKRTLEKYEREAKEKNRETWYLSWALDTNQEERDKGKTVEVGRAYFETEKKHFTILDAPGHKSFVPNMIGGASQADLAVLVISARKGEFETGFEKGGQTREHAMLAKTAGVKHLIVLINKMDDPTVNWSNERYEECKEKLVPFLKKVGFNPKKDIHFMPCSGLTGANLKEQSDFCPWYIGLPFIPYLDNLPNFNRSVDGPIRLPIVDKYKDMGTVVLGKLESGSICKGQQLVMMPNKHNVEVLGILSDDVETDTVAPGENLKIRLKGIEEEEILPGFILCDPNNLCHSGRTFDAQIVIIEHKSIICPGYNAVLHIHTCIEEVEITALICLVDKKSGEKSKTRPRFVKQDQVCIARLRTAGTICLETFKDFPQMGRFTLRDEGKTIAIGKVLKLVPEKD
Chain of GSPT1 (Q96SW2 whole entry): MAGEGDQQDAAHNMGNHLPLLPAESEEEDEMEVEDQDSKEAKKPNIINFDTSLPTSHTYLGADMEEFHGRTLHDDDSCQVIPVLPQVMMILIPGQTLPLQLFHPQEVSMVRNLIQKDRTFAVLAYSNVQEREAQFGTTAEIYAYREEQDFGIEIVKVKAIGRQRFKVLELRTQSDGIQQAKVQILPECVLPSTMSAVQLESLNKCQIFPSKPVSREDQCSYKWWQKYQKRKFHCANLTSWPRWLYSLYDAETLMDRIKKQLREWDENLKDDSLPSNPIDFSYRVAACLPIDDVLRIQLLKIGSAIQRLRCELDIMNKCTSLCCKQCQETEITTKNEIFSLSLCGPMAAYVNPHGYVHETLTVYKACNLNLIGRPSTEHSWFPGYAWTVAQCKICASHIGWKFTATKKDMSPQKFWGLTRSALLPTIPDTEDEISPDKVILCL
Chain of GSPT1 (Q16531 whole entry partner): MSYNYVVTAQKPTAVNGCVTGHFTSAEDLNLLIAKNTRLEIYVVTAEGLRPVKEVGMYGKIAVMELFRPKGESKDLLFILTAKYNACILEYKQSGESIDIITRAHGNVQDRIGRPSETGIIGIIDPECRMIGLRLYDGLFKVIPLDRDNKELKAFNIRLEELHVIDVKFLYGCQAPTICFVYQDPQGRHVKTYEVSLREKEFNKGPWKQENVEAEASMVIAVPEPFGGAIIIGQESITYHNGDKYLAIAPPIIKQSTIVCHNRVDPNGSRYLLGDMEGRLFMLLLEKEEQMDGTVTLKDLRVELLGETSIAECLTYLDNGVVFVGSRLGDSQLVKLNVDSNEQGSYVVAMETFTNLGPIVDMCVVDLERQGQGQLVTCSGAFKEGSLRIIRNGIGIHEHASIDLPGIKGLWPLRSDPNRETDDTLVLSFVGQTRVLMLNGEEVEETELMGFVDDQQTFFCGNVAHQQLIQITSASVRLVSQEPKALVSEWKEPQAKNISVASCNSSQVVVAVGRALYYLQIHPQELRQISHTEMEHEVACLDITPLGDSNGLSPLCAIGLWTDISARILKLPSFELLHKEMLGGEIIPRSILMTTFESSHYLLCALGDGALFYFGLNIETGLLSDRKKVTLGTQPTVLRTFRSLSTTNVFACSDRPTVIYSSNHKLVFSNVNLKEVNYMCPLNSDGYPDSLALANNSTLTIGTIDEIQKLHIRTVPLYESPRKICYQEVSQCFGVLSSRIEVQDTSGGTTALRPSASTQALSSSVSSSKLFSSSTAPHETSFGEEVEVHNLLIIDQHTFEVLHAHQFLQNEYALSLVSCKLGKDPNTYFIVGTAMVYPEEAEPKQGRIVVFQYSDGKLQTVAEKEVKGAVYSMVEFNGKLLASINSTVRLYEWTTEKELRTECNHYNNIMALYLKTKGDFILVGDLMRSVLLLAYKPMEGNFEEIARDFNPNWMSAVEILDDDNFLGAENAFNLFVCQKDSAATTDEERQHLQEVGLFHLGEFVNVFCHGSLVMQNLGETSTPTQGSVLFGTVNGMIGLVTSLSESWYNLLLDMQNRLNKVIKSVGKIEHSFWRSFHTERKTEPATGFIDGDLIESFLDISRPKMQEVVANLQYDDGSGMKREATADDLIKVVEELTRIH
Procedure, shortened: as §1

T1 sequence (P48729 whole entry): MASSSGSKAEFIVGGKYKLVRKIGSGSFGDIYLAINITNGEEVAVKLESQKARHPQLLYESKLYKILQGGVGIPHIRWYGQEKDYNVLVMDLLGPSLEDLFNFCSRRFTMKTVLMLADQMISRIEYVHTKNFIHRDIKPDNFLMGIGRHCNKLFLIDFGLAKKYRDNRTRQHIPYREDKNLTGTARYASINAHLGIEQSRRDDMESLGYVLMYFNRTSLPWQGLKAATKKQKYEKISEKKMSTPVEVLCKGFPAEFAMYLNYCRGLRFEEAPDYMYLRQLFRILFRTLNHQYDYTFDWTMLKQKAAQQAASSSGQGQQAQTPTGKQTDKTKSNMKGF
T1 sequence (Q96SW2 whole entry): as the sequence (Q96SW2 whole entry) above
T1 sequence (Q16531 whole entry partner): as the sequence (Q16531 whole entry partner) above

SMILES | CK1α Ymin [1] | DC50 [1] [µM] | DC50 [2] [µM] | GSPT1 Ymin [2]
Cn1cnc(-c2ccc3c(c2)CN(C2CCC(=O)NC2=O)C3=O)c1-c1ccc2ccn(C)c2c1 (stereo not shown) [Example 529] | D (D = >10- 25% remaining) | < 0.025 | < 0.025 | F (F = >75-100% remaining)
Cn1cnc(-c2ccc3c(c2)CN(C2CCC(=O)NC2=O)C3=O)c1-c1cn[nH]c1 (stereo not shown) [Example 531] | C (C = 0-10% remaining) | ≥ 0.025 | ≥ 0.025 | E (E = >25-75% remaining)
Cn1cc(-c2ccc3c(c2)CN(C2CCC(=O)NC2=O)C3=O)nc1C1CCOCC1 (stereo not shown) [Example 532, 3-(5-(1-methyl-2-(tetrahydro-2H-pyran-4-yl)-1H-imidazol-4-yl)-1-oxoisoindolin-2-yl)piperidine-2,6-dione] | D (D = >10- 25% remaining) | < 0.025 | ≥ 0.025 | F (F = >75-100% remaining)
Cn1nc(-c2ccc3c(c2)CN(C2CCC(=O)NC2=O)C3=O)cc1-c1cncnc1 (stereo not shown) [Example 533] | E (E = >25-75% remaining) | ≥ 0.025 | ≥ 0.025 | F (F = >75-100% remaining)
Cn1c(C2CCOCC2)nc(-c2ccc3c(c2)CN(C2CCC(=O)NC2=O)C3=O)c1-c1cncnc1 (stereo not shown) [Example 535, 3-(5-(1-methyl-5-(pyrimidin-5-yl)-2-(tetrahydro-2H-pyran-4-yl)-1H-imidazol-4-yl)-1-oxoisoindolin-2-yl)piperidine-2,6-dione] | D (D = >10- 25% remaining) | ≥ 0.025 | ≥ 0.025 | F (F = >75-100% remaining)
Cn1c(-c2ccc3c(c2)CN(C2CCC(=O)NC2=O)C3=O)cnc1N1CCCCC1 (stereo not shown) [Example 537, 3-(5-(1-methyl-2-(piperidin-1-yl)-1H-imidazol-5-yl)-1-oxoisoindolin-2-yl)piperidine-2,6-dione] | D (D = >10- 25% remaining) | < 0.025 | ≥ 0.025 | F (F = >75-100% remaining)
Cn1nc(-c2ccc3c(c2)CN(C2CCC(=O)NC2=O)C3=O)cc1C1CCOCC1 (stereo not shown) [Example 538, 3-(5-(1-methyl-5-(tetrahydro-2H-pyran-4-yl)-1H-pyrazol-3-yl)-1-oxoisoindolin-2-yl)piperidine-2,6-dione] | D (D = >10- 25% remaining) | < 0.025 | ≥ 0.025 | –
Cn1cc(-c2ccc3c(c2)CN(C2CCC(=O)NC2=O)C3=O)nc1C1CCC(C)(C)CC1 (stereo not shown) [Example 539, 3-(5-(2-(4,4-dimethylcyclohexyl)-1-methyl-1H-imidazol-4-yl)-1-oxoisoindolin-2-yl)piperidine-2,6-dione] | E (E = >25-75% remaining) | < 0.025 | ≥ 0.025 | F (F = >75-100% remaining)
Cn1ncc(-c2ccc3c(c2)CN(C2CCC(=O)NC2=O)C3=O)c1-c1ccc(C(C)(F)F)cc1 (stereo not shown) [Example 541, 3-(5-(5-(4-(1,1-difluoroethyl)phenyl)-1-methyl-1H-pyrazol-4-yl)-1-oxoisoindolin-2-yl)piperidine-2,6-dione] | D (D = >10- 25% remaining) | < 0.025 | < 0.025 | F (F = >75-100% remaining)
Cn1ncc(-c2ccc3c(c2)CN(C2CCC(=O)NC2=O)C3=O)c1-c1ccc2c(c1)OC(F)(F)O2 (stereo not shown) [Example 542, 3-(5-(5-(2,2-difluorobenzo[d][1,3]dioxol-5-yl)-1-methyl-1H-pyrazol-4-yl)-1-oxoisoindolin-2-yl)piperidine-2,6-dione] | C (C = 0-10% remaining) | < 0.025 | < 0.025 | F (F = >75-100% remaining)
CC(C)c1nc(-c2ccc3c(c2)CN(C2CCC(=O)NC2=O)C3=O)c(-c2cncnc2)n1C (stereo not shown) [Example 543, 3-[5-(2-isopropyl-1-methyl-5-pyrimidin-5-yl-imidazol-4-yl)-1-oxo-isoindolin-2-yl]piperidine-2,6-dione] | C (C = 0-10% remaining) | < 0.025 | ≥ 0.025 | F (F = >75-100% remaining)
Cn1c(C2CC2)nc(-c2ccc3c(c2)CN(C2CCC(=O)NC2=O)C3=O)c1-c1cnc(C2CC2)nc1 (stereo not shown) [Example 548, 3-(5-(2-cyclopropyl-5-(2-cyclopropylpyrimidin-5-yl)-1-methyl-1H-imidazol-4-yl)-1-oxoisoindolin-2-yl)piperidine-2,6-dione] | D (D = >10- 25% remaining) | < 0.025 | ≥ 0.025 | F (F = >75-100% remaining)
CC(C)n1cc(-c2ccc3c(c2)CN(C2CCC(=O)NC2=O)C3=O)nc1-c1ccccc1 (stereo not shown) [Example 549, 3-(5-(1-isopropyl-2-phenyl-1H-imidazol-4-yl)-1-oxoisoindolin-2-yl)piperidine-2,6-dione] | C (C = 0-10% remaining) | < 0.025 | ≥ 0.025 | F (F = >75-100% remaining)
O=C1CCC(N2Cc3cc(-n4ccc(-c5ccccc5)n4)ccc3C2=O)C(=O)N1 (stereo not shown) [Example 551, 3-(1-oxo-5-(3-phenyl-1H-pyrazol-1-yl)isoindolin-2-yl)piperidine-2,6-dione] | E (E = >25-75% remaining) | < 0.025 | ≥ 0.025 | F (F = >75-100% remaining)
Cn1nc(-c2ccc3c(c2)CN(C2CCC(=O)NC2=O)C3=O)nc1N1CCCCC1 (stereo not shown) [Example 554, 3-(5-(1-methyl-5-(piperidin-1-yl)-1H-1,2,4-triazol-3-yl)-1-oxoisoindolin-2-yl) piperidine-2,6-dione] | D (D = >10- 25% remaining) | < 0.025 | ≥ 0.025 | F (F = >75-100% remaining)
Cn1cc(-c2ccc3c(c2)CN(C2CCC(=O)NC2=O)C3=O)nc1-c1cc(F)cc(F)c1 (stereo not shown) [Example 555] | C (C = 0-10% remaining) | < 0.025 | ≥ 0.025 | F (F = >75-100% remaining)
Cn1cc(-c2ccc3c(c2)CN(C2CCC(=O)NC2=O)C3=O)nc1-c1ccc(F)cc1 (stereo not shown) [Example 556] | C (C = 0-10% remaining) | < 0.025 | ≥ 0.025 | F (F = >75-100% remaining)

Results, then the molecule that gave them:

CK1α Ymin [1] | DC50 [1] [µM] | DC50 [2] [µM] | GSPT1 Ymin [2] | SMILES
E (E = >25-75% remaining) | < 0.025 | < 0.025 | F (F = >75-100% remaining) | Cn1cnc(-c2ccc3c(c2)CN(C2CCC(=O)NC2=O)C3=O)c1-c1ccn(-c2ccc(F)cc2)n1 (stereo not shown) [Example 530]
D (D = >10- 25% remaining) | < 0.025 | ≥ 0.025 | F (F = >75-100% remaining) | Cn1cc(-c2ccc3c(c2)CN(C2CCC(=O)NC2=O)C3=O)nc1C1CCC2(CC1)CC2 (stereo not shown) [Example 534, 3-(5-(1-Methyl-2-(spiro[2.5]octan-6-yl)-1H-imidazol-4-yl)-1-oxoisoindolin-2-yl)piperidine-2,6-dione]
F (F = >75-100% remaining) | ≥ 0.025 | ≥ 0.025 | F (F = >75-100% remaining) | O=C1CCC(N2Cc3cc(-c4cn(C(F)F)nc4-c4cncnc4)ccc3C2=O)C(=O)N1 (stereo not shown) [Example 536, 3-(5-(1-(difluoromethyl)-3-(pyrimidin-5-yl)-1H-pyrazol-4-yl)-1-oxoisoindolin-2-yl)piperidine-2,6-dione]
C (C = 0-10% remaining) | < 0.025 | ≥ 0.025 | F (F = >75-100% remaining) | Cn1c(C(F)F)nc(-c2ccc3c(c2)CN(C2CCC(=O)NC2=O)C3=O)c1-c1cncnc1 (stereo not shown) [Example 540, 3-(5-(2-(difluoromethyl)-1-methyl-5-(pyrimidin-5-yl)-1H-imidazol-4-yl)-1-oxoisoindolin-2-yl)piperidine-2,6-dione]
E (E = >25-75% remaining) | ≥ 0.025 | ≥ 0.025 | F (F = >75-100% remaining) | Cc1nc(-c2ccc3c(c2)CN(C2CCC(=O)NC2=O)C3=O)c(-c2cncnc2)n1C (stereo not shown) [Example 544, 3-(5-(1,2-dimethyl-5-(pyrimidin-5-yl)-1H-imidazol-4-yl)-1-oxoisoindolin-2-yl)piperidine-2,6-dione]
D (D = >10- 25% remaining) | < 0.025 | ≥ 0.025 | F (F = >75-100% remaining) | Cn1cc(-c2ccc3c(c2)CN(C2CCC(=O)NC2=O)C3=O)nc1C1CCC(F)(F)CC1 (stereo not shown) [Example 545, 3-(5-(2-(4,4-difluorocyclohexyl)-1-methyl-1H-imidazol-4-yl)-1-oxoisoindolin-2-yl)piperidine-2,6-dione]
D (D = >10- 25% remaining) | < 0.025 | ≥ 0.025 | F (F = >75-100% remaining) | Cc1ncc(-c2c(-c3ccc4c(c3)CN(C3CCC(=O)NC3=O)C4=O)nc(C3CC3)n2C)cn1 (stereo not shown) [Example 547, 3-(5-(2-cyclopropyl-1-methyl-5-(2-methylpyrimidin-5-yl)-1H-imidazol-4-yl)-1-oxoisoindolin-2-yl)piperidine-2,6-dione]
E (E = >25-75% remaining) | ≥ 0.025 | ≥ 0.025 | F (F = >75-100% remaining) | O=C1CCC(N2Cc3cc(-n4cnc(-c5ccccc5)c4)ccc3C2=O)C(=O)N1 (stereo not shown) [Example 552, 3-(1-oxo-5-(4-phenyl-1H-imidazol-1-yl)isoindolin-2-yl)piperidine-2,6-dione]
C (C = 0-10% remaining) | < 0.025 | ≥ 0.025 | F (F = >75-100% remaining) | COc1ccc(-c2nc(-c3ccc4c(c3)CN(C3CCC(=O)NC3=O)C4=O)cn2C)cc1 (stereo not shown) [Example 557]
